These results are taken from patent US20250145606A1 (Arcus Biosciences, Inc., priority 2023, published 2025).

As usually defined, the IC50 is the point on the concentration scale where inhibition reaches its midpoint. Read a low IC50 as inhibition by little substance.

Details in all cases: biochemical, HTRF KinEASE-TK
A general note: Time-resolved FRET reads energy transfer from a long-lived donor to a nearby acceptor.

For one experiment, the target named is c-Kit (Homo sapiens (Human), UniProt P10721). The experiment is described as follows: Inhibition of c-Kit kinase activity (HTRF KinEASE-TK). The experiment is classed as biochemical. The procedure, abridged:
(§1)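 Phosphorylation of biotinylated TK peptide read by HTRF (665/620 nm ratio) after 120 min at rt, following 1 h enzyme–compound preincubation. ATP (2× mix): 20 μM CSF1R, 16 μM c-Kit, 40 μM PDGFRβ, 1 μM PDGFRα; MgCl2 10 mM except c-Kit 5 mM. 22-point 1:2 titration; four-parameter IC50.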

The next experiment deals with PDGFRα (Homo sapiens (Human), UniProt P16234). Description: Inhibition of PDGFRα kinase activity (HTRF KinEASE-TK). The procedure, abridged:
as §1

The target of a further experiment is CSF1R (Homo sapiens (Human), UniProt P07333). Description: Inhibition of CSF1R kinase activity (HTRF KinEASE-TK). An outline of the steps: as §1
CSF1R, sequence (P07333 20-972): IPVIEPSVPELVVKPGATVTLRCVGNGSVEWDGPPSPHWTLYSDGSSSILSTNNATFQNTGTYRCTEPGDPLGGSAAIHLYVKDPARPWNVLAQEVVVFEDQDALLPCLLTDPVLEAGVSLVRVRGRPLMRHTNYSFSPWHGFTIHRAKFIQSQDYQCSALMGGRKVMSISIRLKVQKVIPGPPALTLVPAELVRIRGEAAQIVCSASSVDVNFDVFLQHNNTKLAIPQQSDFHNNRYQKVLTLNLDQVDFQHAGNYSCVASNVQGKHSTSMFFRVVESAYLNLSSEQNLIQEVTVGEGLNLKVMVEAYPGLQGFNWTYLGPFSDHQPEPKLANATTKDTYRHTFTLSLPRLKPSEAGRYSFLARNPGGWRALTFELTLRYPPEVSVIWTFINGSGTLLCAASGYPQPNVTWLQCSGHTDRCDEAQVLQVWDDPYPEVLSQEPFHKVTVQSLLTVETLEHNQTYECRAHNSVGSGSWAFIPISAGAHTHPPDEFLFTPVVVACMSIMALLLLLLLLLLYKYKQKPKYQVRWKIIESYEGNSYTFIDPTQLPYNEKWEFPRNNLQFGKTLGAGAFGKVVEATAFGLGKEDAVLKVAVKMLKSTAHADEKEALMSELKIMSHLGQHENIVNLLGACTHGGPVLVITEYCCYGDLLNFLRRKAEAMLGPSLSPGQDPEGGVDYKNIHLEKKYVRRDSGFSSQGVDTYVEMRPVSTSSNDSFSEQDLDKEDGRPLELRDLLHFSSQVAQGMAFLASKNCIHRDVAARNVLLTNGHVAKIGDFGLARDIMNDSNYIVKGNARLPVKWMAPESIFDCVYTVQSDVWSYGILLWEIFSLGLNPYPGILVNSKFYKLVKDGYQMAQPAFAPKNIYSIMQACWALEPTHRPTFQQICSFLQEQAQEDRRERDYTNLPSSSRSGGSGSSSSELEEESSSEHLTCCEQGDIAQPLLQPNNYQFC
The next experiment has as its target FLT3 (Homo sapiens (Human), UniProt P36888). The experiment is described as follows: Inhibition of FLT3 kinase activity (HTRF KinEASE-TK). The experiment is classed as biochemical. Here is the method: Inhibition of c-Kit, PDGFRα, PDGFRβ, CSFIR and FLT3 Kinase Activity
Compounds were evaluated to determine the potency with which they inhibit the kinase activity of the following panel of tyrosine kinases: c-Kit (SignalChem, Product #: K06-11BG), PDGFRα (SignalChem, Product #: P12-18G), PDGFRβ (SignalChem, Product #: P13-11G), CSFIR (SignalChem, Product #: C74-11G) and FLT3 (Invitrogen, Product #: PR4666C). Activity was determined as a function of phosphorylated biotinylated TK peptide generated by the transfer of phosphate from ATP as measured by the use of the HTRF KinEASE-TK assay kit (Cisbio, Product #: 62TKOPEJ). Levels of phosphorylated biotinylated TK peptide (Part 61TKOBLC of KinEASE assay kit) are quantified by its capture by phosphor-TK-Antibody-Cryptate (Part of KinEASE assay kit) and XL665-labeled Streptavidin (Part 610SAXLG of KinEASE assay kit) followed by measurement of Time-Resolved Fluorescence Resonance Energy Transfer (TR-FRET) signal. On the day of the assay, compounds were solubilized in DMSO and dispensed into a 384-well white Opti-plate (PerkinElmer, catalog #6007290) to generate a 22 point 1:2 titration. Enzyme solution was prepared for each of the tyrosine kinases in 50 mM HEPES, pH 7.4, 5 mM MgCl2 for c-Kit or 10 mM MgCl2 for FLT3, CSFIR, PDGFRa and PDGFRβ, 2 mM MnCl2, 0.01% Brij-35 and 0.01% BSA. Working enzyme concentrations were prepared for c-Kit at 2 nM (2×), PDGFRa and PDGFRß at 10 nM (2×), CSFIR at 2 nM (2×) and FLT3 at 0.4 nM (2×). Five microliters of enzyme dilution of each tyrosine kinase were added to their respective 384-well white Opti-plate pre-dispensed with compound and allowed to incubate for 1 h at rt. Utilizing the same enzyme buffer recipe, 2x substrate mixes were prepared for each enzyme as follows: For c-Kit, 1.6 μM (2×) TK substrate and 16 μM (2×) ATP (Promega, catalog #V915). For PDGFRα, 3.2 μM TK substrate and 1 μM ATP. For PDGFRβ, 3.2 μM TK substrate and 40 μM ATP. For CSFIR, […] TK substrate and 20 μM ATP. For FLT3, 3.2 μM TK substrate and 100 μM ATP. Reactions were initiated by addition of 5 μL of the respective 2x substrate mix to each well of the plates containing the respective tyrosine kinase enzymes and were allowed to proceed for 120 minutes at rt, except for FLT3, the reaction time is 45 min. Following the reaction, 10 μL of detection mix consisting of 0.2 μM (2×) of Streptavidin-XL665 and 2 μM (2×) of TK-Antibody-Cryptate prepared in detection buffer (Part 62SDBRDF of KinEASE assay kit) was added and then allowed to incubate for 60 min. The TR-FRET signal was quantified by measuring the ratio of emission at 665 nm to 620 nm after excitation at 320 nm by reading on a PerkinElmer Envision multimode reader. Compound potencies (IC50 values) were determined using a standard 4-parameter non-linear regression fit.

For a further experiment, the target named is PDGFRβ (Homo sapiens (Human), UniProt P09619). Description: Inhibition of PDGFRβ kinase activity (HTRF KinEASE-TK). The procedure, abridged:
as §1

PDGFRβ, sequence (P09619 33-1106): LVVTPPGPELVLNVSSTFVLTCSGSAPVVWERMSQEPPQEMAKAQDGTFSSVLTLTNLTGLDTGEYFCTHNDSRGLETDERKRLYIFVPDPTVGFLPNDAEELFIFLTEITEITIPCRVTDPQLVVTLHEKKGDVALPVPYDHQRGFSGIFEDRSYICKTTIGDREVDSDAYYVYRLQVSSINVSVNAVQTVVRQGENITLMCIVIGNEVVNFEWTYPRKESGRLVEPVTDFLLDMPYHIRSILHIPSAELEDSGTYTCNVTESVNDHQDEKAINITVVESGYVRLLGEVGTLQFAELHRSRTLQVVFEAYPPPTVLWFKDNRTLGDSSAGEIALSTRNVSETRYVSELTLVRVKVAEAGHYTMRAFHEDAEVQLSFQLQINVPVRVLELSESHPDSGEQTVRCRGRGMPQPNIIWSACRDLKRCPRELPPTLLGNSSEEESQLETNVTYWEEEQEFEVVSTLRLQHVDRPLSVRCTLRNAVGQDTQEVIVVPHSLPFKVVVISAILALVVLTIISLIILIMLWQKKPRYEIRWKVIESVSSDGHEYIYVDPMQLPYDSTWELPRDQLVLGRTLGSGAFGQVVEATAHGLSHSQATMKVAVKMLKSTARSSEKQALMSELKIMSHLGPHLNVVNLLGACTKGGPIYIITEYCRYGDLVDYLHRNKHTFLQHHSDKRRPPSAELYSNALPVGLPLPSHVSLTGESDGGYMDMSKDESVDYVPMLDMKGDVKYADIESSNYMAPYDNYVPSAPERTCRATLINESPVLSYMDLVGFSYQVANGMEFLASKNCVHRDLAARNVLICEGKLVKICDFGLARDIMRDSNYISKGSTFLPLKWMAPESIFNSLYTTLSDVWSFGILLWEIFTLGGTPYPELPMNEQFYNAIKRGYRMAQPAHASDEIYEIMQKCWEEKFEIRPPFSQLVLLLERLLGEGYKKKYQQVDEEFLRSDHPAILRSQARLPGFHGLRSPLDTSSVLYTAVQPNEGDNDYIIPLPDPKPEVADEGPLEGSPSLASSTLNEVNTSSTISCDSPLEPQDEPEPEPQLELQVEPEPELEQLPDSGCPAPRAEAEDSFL
FLT3, sequence (P36888 27-993): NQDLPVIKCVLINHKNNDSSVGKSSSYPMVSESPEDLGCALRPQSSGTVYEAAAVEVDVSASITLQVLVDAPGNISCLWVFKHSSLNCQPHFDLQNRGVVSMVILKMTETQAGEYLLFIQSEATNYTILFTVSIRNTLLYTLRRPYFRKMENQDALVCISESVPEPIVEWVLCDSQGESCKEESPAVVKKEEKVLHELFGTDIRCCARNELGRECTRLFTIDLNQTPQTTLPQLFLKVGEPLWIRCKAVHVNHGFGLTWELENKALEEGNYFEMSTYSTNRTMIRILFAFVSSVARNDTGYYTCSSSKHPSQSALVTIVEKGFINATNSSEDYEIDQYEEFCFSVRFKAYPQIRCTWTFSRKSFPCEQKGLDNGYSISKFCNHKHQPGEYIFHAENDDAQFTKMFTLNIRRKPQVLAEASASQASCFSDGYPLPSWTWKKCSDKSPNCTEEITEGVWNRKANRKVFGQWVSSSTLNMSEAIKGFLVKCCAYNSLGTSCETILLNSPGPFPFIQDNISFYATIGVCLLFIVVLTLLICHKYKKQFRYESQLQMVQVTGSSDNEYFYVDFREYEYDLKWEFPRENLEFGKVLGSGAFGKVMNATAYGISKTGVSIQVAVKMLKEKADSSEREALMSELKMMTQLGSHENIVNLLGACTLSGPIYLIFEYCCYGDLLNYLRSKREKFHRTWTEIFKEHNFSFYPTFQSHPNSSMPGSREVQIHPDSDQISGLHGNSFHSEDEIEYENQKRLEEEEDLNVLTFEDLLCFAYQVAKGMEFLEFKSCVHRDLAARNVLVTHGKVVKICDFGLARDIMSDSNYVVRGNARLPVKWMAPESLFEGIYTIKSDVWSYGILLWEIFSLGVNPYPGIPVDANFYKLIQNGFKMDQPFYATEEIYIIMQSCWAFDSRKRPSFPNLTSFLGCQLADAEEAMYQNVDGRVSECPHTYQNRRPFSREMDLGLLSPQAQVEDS
PDGFRα, sequence (P16234 24-1089): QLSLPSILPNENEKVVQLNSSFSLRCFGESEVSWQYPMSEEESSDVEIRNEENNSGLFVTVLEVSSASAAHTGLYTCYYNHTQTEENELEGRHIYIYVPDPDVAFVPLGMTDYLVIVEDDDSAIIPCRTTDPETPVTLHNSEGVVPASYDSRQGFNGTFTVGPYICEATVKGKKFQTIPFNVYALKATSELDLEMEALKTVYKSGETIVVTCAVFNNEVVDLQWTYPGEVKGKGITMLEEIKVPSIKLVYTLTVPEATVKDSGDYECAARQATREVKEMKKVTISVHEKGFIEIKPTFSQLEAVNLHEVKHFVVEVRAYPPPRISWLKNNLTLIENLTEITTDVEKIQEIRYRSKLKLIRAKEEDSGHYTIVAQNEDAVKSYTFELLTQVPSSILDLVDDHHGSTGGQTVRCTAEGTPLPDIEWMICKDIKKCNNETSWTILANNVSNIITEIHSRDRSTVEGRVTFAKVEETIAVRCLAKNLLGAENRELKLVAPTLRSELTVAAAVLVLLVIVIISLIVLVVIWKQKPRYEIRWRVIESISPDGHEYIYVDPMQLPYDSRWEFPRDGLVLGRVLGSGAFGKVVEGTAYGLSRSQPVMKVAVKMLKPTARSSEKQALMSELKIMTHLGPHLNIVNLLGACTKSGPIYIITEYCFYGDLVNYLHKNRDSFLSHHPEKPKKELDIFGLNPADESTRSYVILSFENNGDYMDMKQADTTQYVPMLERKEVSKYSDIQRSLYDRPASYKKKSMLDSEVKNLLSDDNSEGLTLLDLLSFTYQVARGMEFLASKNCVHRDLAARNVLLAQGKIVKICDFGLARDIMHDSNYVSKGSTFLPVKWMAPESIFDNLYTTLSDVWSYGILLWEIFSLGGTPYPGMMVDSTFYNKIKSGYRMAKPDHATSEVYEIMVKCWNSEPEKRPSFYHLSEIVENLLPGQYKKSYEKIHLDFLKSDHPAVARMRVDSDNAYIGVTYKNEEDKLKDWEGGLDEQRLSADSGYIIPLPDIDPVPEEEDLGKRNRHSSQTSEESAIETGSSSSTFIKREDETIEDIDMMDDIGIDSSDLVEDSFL
c-Kit, sequence (P10721 26-976): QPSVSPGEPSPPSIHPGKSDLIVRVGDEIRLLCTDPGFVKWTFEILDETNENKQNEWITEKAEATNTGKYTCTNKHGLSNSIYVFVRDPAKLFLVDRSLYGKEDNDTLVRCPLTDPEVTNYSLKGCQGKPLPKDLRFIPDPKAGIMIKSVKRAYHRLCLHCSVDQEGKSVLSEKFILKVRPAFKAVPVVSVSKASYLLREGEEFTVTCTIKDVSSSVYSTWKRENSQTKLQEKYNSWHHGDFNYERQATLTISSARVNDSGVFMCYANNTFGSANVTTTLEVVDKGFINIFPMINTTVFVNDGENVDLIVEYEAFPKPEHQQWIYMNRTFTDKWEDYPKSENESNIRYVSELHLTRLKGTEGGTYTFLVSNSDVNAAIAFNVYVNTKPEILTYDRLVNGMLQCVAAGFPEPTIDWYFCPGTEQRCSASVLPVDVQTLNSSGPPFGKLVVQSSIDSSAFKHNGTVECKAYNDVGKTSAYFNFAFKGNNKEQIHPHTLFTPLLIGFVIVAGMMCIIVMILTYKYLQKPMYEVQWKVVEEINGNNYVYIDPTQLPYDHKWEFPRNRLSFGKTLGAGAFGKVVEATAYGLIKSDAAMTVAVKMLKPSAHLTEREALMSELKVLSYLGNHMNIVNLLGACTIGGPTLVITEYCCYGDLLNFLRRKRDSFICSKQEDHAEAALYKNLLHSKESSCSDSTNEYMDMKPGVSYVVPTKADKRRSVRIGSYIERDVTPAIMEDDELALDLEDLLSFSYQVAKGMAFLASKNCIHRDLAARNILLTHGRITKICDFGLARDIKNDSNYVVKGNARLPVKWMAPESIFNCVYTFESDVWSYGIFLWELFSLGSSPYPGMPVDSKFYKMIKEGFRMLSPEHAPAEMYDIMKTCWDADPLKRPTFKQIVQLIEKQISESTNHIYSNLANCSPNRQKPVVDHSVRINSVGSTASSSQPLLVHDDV

`Cc1cc(F)c(C(=O)Nc2ccn(C)n2)cc1NC(=O)c1cnc(N)s1` [Example 163, 2-Amino-N-[4-fluoro-2-methyl-5-[(1-methylpyrazol-3-yl)carbamoyl]phenyl]-1,3-thiazole-5-carboxamide]: the IC50 against c-Kit is less than 100 nM; against PDGFRα, more than 1000 nM; on CSF1R, more than 1000 nM; on FLT3 it was more than 1000 nM; against PDGFRβ, more than 1000 nM.

In the case of `Cc1ncc(NC(=O)c2cc(NC(=O)c3cnc(N)s3)c(C)cc2F)s1` [Example 166, 2-Amino-N-[4-fluoro-2-methyl-5-[(2-methyl-1,3-thiazol-5-yl)carbamoyl]phenyl]-1,3-thiazole-5-carboxamide], the IC50 at c-Kit was less than 100 nM; at PDGFRα, more than 1000 nM; on CSF1R, 100 to 1000 nM; on FLT3, more than 1000 nM; against PDGFRβ, 100 to 1000 nM.

`Cc1cc(F)c(C(=O)Nc2cnn(C)c2)cc1NC(=O)c1cnc(N)s1` [Example 167, 2-Amino-N-[4-fluoro-2-methyl-5-[(1-methylpyrazol-4-yl)carbamoyl]phenyl]-1,3-thiazole-5-carboxamide]: the IC50 against c-Kit is less than 100 nM; on PDGFRα, more than 1000 nM; against CSF1R, more than 1000 nM; on FLT3, more than 1000 nM; on PDGFRβ, more than 1000 nM.

Consider `Cc1cc(F)c(C(=O)Nc2cnn(C(C)C)n2)cc1NC(=O)c1cnc(N)s1` [Example 171, 2-Amino-N-[4-fluoro-2-methyl-5-[(2-propan-2-yltriazol-4-yl)carbamoyl]phenyl]-1,3-thiazole-5-carboxamide], for which the IC50 was less than 100 nM against c-Kit; 100 to 1000 nM against PDGFRα; 100 to 1000 nM on CSF1R; more than 1000 nM against FLT3; 100 to 1000 nM against PDGFRβ.

Consider `COC(c1ccc(NC(=O)c2cc(NC(=O)c3cnc(N)s3)c(C)cc2F)nc1)C1CC1` (stereo not drawn) [Example 197, 2-Amino-N-[5-[[5-[cyclopropyl(methoxy)methyl]pyridin-2-yl]carbamoyl]-4-fluoro-2-methylphenyl]-1,3-thiazole-5-carboxamide], for which the IC50 at c-Kit is less than 100 nM; at PDGFRα, more than 1000 nM; on CSF1R, more than 1000 nM; against FLT3, more than 1000 nM; on PDGFRβ, 100 to 1000 nM.

`Cc1cc(F)c(C(=O)Nc2ccc(OC(F)F)cc2)cc1NC(=O)c1cnc(N)s1` [Example 227, 2-Amino-N-[5-[[4-(difluoromethoxy)phenyl]carbamoyl]-4-fluoro-2-methylphenyl]-1,3-thiazole-5-carboxamide]: the IC50 was less than 100 nM on c-Kit; less than 100 nM at PDGFRα; less than 100 nM against CSF1R; more than 1000 nM on FLT3; less than 100 nM at PDGFRβ.

For `Nc1ncc(C(=O)Nc2cc(C(=O)Nc3ccc(OC4CC4)cn3)c(F)cc2Br)s1` [Example 236, 2-Amino-N-[2-bromo-5-[(5-cyclopropyloxypyridin-2-yl)carbamoyl]-4-fluorophenyl]-1,3-thiazole-5-carboxamide], the IC50 on c-Kit is less than 100 nM; against PDGFRα it was more than 1000 nM; at CSF1R, 100 to 1000 nM; on FLT3, more than 1000 nM; on PDGFRβ, 100 to 1000 nM.

Turning to `Cc1cc(F)c(C(=O)Nc2ccc(OC3CC3)cn2)cc1NC(=O)c1cnc(NC(=O)C(F)(F)F)s1` [Example 239, N-[5-[(5-cyclopropyloxypyridin-2-yl)carbamoyl]-4-fluoro-2-methylphenyl]-2-[(2,2,2-trifluoroacetyl)amino]-1,3-thiazole-5-carboxamide], the IC50 is less than 100 nM at c-Kit; more than 1000 nM against PDGFRα; more than 1000 nM against CSF1R; more than 1000 nM against FLT3; 100 to 1000 nM against PDGFRβ.

In the case of `CC(=O)Nc1ncc(C(=O)Nc2cc(C(=O)Nc3ccc(OC4CC4)cn3)c(F)cc2C)s1` [Example 240, 2-Acetamido-N-[5-[(5-cyclopropyloxypyridin-2-yl)carbamoyl]-4-fluoro-2-methylphenyl]-1,3-thiazole-5-carboxamide], the IC50 against c-Kit is less than 100 nM; at PDGFRα, more than 1000 nM; on CSF1R, more than 1000 nM; against FLT3 it was more than 1000 nM; against PDGFRβ it was less than 100 nM.
